This is an account of results in patent publication US11623919B2, “Heterocyclic P2X7 antagonists” (AXXAM S.P.A., priority 2017, dated 2023).

Broadly, the IC50 is the concentration that gives 50% inhibition.

What all share (type): cell-based
The target of test [1] is T1, P2X7 receptor (Homo sapiens, UniProt Q99572).
T1 sequence (Q99572 1-595): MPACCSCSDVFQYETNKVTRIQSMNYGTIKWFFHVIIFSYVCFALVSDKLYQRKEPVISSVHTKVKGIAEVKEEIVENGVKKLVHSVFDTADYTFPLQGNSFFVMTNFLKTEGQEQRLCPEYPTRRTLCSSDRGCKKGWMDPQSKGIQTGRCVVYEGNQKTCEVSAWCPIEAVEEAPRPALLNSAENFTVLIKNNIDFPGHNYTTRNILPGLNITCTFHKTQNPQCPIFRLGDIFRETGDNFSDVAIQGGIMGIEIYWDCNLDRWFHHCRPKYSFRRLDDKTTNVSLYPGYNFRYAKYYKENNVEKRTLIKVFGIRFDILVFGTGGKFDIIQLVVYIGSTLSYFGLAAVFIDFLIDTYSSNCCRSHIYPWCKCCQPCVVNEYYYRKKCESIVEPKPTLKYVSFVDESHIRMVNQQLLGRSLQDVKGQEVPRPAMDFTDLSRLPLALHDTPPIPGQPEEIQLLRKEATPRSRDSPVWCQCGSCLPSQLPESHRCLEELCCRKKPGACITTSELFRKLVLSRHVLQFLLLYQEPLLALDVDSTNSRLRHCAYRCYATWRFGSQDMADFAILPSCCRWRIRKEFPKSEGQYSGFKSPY
Nature of the test: Automated patch-clamp (QPatch16X) P2X7 channel assay. Also noted: expressed in transfected cells; host or cells: HEK-293. Particulars: HEK-293 cells expressing P2X7 channels; whole-cell, held at -80 mV; 100 microM BzATP; compound 1, 10, 100 and 1000 nM; read-out: Q-Patch (IC50). Here is the method: In order to directly monitor the block of P2X7 channel, an electrophysiological assay was developed and implemented on the QPatch16X automated electrophysiology instrument.
HEK-293 cells expressing the P2X7 channels were cultured in modified EMEM.
72 hours before experiment, 5 million cells were seeded onto T225 flasks. Just before the experiment cells were washed twice, detached from the flask with trypsin-EDTA, re-suspended in the suspension solution and placed on the QPatch 16x.
The compounds (20 mM in a 100% DMSO) stored at −20° C. were prepared the day of the experiment (a first dilution 1:20 in 100% DMSO to prepare a 1 mM stock solution, then a 1 microM solution in external solution+a serial dilution 1:10).
The standard whole-cell voltage clamp experiments were performed at room temperature. From these experiments the multihole technology was used and the data were sampled at 2 KHz.
The intracellular solution contained (mM) 135 CsF, 10 NaCl, 1 EGTA, 10 HEPES, (pH 7.2 with CsOH) whereas the extracellular contained (mM) 145 NaCl, 4 KCl, 0.5 MgCl2, 1 CaCl2, 10 HEPES, 10 Glc (pH 7.4 with NaOH).
After establishment of the seal and the passage in the whole cell configuration, the cells were held at −80 mV. The P2XR7 current was evoked by applying 100 microM of BzATP alone (4 times) and then in the presence increasing concentrations of the compound under investigation (1, 10, 100 and 1000 nM).
The pre-incubation periods 5 to 8 contain increasing concentrations of the compound of interest (1, 10, 100 and 1000 nM), as illustrated in FIGURE (application protocol).
The maximal inward current evoked by BzATP in absence or presence of increasing concentrations of the compounds under investigation was measured and normalized. The potential […] effect was measured as % of control and as IC50 determined fitting the dose-response curves data with the following equation: Y=100/(1+10^((Log IC50−X)*HillSlope))

For test [2], the target named is T1, P2X7 receptor. Nature of the test: YO-PRO-1 uptake assay. Also noted: expressed in transfected cells. The note with it: HEK-293 cells stably transfected with P2X7 receptor; Bz-ATP EC80 (30 μM); Low Divalent Cation Assay Buffer. The source says: YO-PRO®-1 is a fluorescent DNA-binding dye with a MW of 374 Da (Molecular Probes®, cat. Y3603). This method is based upon the presumed ability of YO-PRO®-1 to enter through the dilated or “large pore form” of P2X7 receptor and to bind to intracellular DNA whereupon it increases many fold its fluorescence intensity. The dye ha an absorption spectrum compatible with excitation at 488 nm by argon laser sources and its emission wavelength is in the range of 515-575 nm. The aim of this assay was to validate the interaction of antagonists with P2X7 receptor using an alternative readout to Ca2+-sensitive fluorescent dyes.
HEK-293 cells stably transfected with P2X7 receptor were seeded overnight un growth medium at 20,000 cell/well in 384-well plate. 24 hours later, the medium was removed, the cells were washed with Low Divalent Cation Assay Buffer (0.3 mM Ca^2+ and 0 mM Mg^2+) and then pre-loaded with 20 μL/w of 5 μM YO-PRO®-1 dye.
FLIPRTETRA fluorescence measurement immediately started. Then 10 μL/w of test compounds and reference antagonist A438079 at 3×-concentration were injected with the FLIPRTETRA and the kinetic response over a period of five minutes was monitored. A second injection of 10 μL/w of 3× Bz-ATP EC80 (30 μM) was performed with the FLIPRTETRA and the signal of the emitted fluorescence was recorded for additional 60 minutes. All the experiment was carried out with a Low Divalent Cation Assay Buffer (0.3 mM Ca^2+ and 0 mM Mg^2+).
The effect of the test compounds was measured as percent inhibition vs the reference antagonist and IC50 values were calculated accordingly.

Test [3] deals with T1, P2X7 receptor. The experiment in a line: Screen Quest Fluo-8 No Wash Calcium Assay (Bz-ATP evoked Ca2+ influx, FLIPR). Set-up: hP2X7 (IC50; nM); other: hP2X7; HEK-293 cells stably transfected with P2X7 receptor, Bz-ATP at EC80, Fluo-8 NW; potency. The note with it: hP2X7; HEK-293 cells stably transfected with P2X7 receptor, Bz-ATP at EC80, Fluo-8 NW; potency ranges A-D. Put shortly:
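Compounds were added to Fluo-8-loaded P2X7-transfected HEK-293 cells 5 min before an EC80 Bz-ATP challenge, and Ca2+ influx was then recorded for 3 min. Buffer held 0.3 mM Ca2+ and no Mg2+. Inhibition was normalised to A438079, giving IC50 values.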

Consider `O=c1onc(Cc2c(F)cccc2Cl)n1CC1CCCC1` [Example 85, 3-[(2-chloro-6-fluorophenyl)methyl]-4-(cyclopentylmethyl)-4,5-dihydro-1,2,4-oxadiazol-5-one], for which the results for the IC50 at P2X7 receptor [1], at P2X7 receptor [2] and at P2X7 receptor [3] were 167 nM, 131 nM and < 200 nM, respectively.

For `CC1(C)CCC(Cn2c(Cc3c(F)cccc3Cl)noc2=O)CC1` [Example 86, 3-[(2-chloro-6-fluorophenyl)methyl]-4-[(4,4-dimethylcyclohexyl)methyl]-4,5-dihydro-1,2,4-oxadiazol-5-one], the IC50 is 154 nM at P2X7 receptor [1], 111 nM at P2X7 receptor [2] and 200 to 1000 nM at P2X7 receptor [3].

Consider `CC1CCCCC1Cn1c(Cc2c(F)cccc2Cl)noc1=O` (stereo not drawn) [Example 87, 3-[(2-chloro-6-fluorophenyl)methyl]-4-[(2-methylcyclohexyl)methyl]-4,5-dihydro-1,2,4-oxadiazol-5-one], for which the IC50 on P2X7 receptor [1] was 44.1 nM; on P2X7 receptor [2] it was 82 nM; at P2X7 receptor [3], < 200 nM.

Consider `O=c1onc(Cc2c(F)cccc2Cl)n1CC1CC2CCC1C2` (stereo not drawn) [Example 88, 4-{bicyclo[2.2.1]heptan-2-ylmethyl}-3-[(2-chloro-6-fluorophenyl)methyl]-4,5-dihydro-1,2,4-oxadiazol-5-one], for which the IC50 on P2X7 receptor [1] was 34.5 nM; against P2X7 receptor [2], 63 nM; at P2X7 receptor [3], < 200 nM.

In the case of `O=c1onc(Cc2c(F)cccc2Cl)n1CC12CCC(CC1)C2` [Example 91, 4-{bicyclo [2.2.1]heptan-1-ylmethyl}-3-[(2-chloro-6-fluorophenyl)methyl]-4,5-dihydro-1,2,4-oxadiazol-5-one], the values for the IC50 at P2X7 receptor [1], at P2X7 receptor [2] and at P2X7 receptor [3] were 22 nM, 45 nM and < 200 nM, respectively.

As for `O=c1onc(Cc2c(F)cccc2Cl)n1CC1CCCCCC1` [Example 92, 3-[(2-chloro-6-fluorophenyl)methyl]-4-(cycloheptylmethyl)-4,5-dihydro-1,2,4-oxadiazol-5-one], the values for the IC50 at P2X7 receptor [1], at P2X7 receptor [2] and at P2X7 receptor [3] were 18.1 nM, 42 nM and < 200 nM, respectively.

`O=c1onc(Cc2c(F)cccc2Cl)n1CC1CCCCO1` (stereo not drawn) [Example 94, 3-[(2-chloro-6-fluorophenyl)methyl]-4-(oxan-2-ylmethyl)-4,5-dihydro-1,2,4-oxadiazol-5-one]: the IC50 at P2X7 receptor [1] is 332 nM; at P2X7 receptor [2], 435 nM; on P2X7 receptor [3] it was 200 to 1000 nM.

For `O=c1onc(Cc2c(F)cccc2Cl)n1CC1(F)CCCCC1` [Example 96, 3-[(2-chloro-6-fluorophenyl)methyl]-4-[(1-fluorocyclohexyl)methyl]-4,5-dihydro-1,2,4-oxadiazol-5-one], the IC50 on P2X7 receptor [1] is 245 nM; at P2X7 receptor [2], 523 nM; at P2X7 receptor [3], 200 to 1000 nM.

Regarding `O=c1onc(Cc2c(F)cccc2Cl)n1CC1CCCCC1(F)F` (stereo not drawn) [Example 97, 3-[(2-chloro-6-fluorophenyl)methyl]-4-[(2,2-difluorocyclohexyl)methyl]-4,5-dihydro-1,2,4-oxadiazol-5-one], the IC50 at P2X7 receptor [1] is 100 nM; on P2X7 receptor [2], 193 nM; on P2X7 receptor [3], < 200 nM.

With `CC1(C)CCCCC1Cn1c(Cc2c(F)cccc2Cl)noc1=O` (stereo not drawn) [Example 99, 3-[(2-chloro-6-fluorophenyl)methyl]-4-[(2,2-dimethylcyclohexyl)methyl]-4,5-dihydro-1,2,4-oxadiazol-5-one], the values for the concentration for half-maximal inhibition (IC50) at P2X7 receptor [1], against P2X7 receptor [2] and on P2X7 receptor [3] were 124 nM, 142 nM and 200 to 1000 nM, respectively.

Consider `O=c1onc(Cc2ccc(F)cc2Cl)n1CC1CCCCC1` [Example 114, 3-[(2-chloro-4-fluorophenyl)methyl]-4-(cyclohexylmethyl)-4,5-dihydro-1,2,4-oxadiazol-5-one], for which the IC50 on P2X7 receptor [1] is 165 nM; on P2X7 receptor [2], 129 nM; on P2X7 receptor [3], 200 to 1000 nM.

Consider `O=c1onc(Cc2cccc(Cl)c2Cl)n1CC1CCCCC1` [Example 115, 4-(cyclohexylmethyl)-3-[(2,3-dichlorophenyl)methyl]-4,5-dihydro-1,2,4-oxadiazol-5-one], for which the results for the IC50 at P2X7 receptor [1], against P2X7 receptor [2] and on P2X7 receptor [3] were 72.7 nM, 399 nM and 200 to 1000 nM, respectively.

Turning to `O=c1onc(Cc2ccccc2C(F)(F)F)n1CC1CCCCC1` [Example 116, 4-(cyclohexylmethyl)-3-{[2-(trifluoromethyl)phenyl]methyl}-4,5-dihydro-1,2,4-oxadiazol-5-one], the figures for the IC50 at P2X7 receptor [1], at P2X7 receptor [2] and on P2X7 receptor [3] were 466 nM, 284 nM and 200 to 1000 nM, respectively.

As to `O=c1onc(Cc2ccccc2Cl)n1CC1CCCCC1` [Example 117, 3-[(2-chlorophenyl)methyl]-4-(cyclohexylmethyl)-4,5-dihydro-1,2,4-oxadiazol-5-one], the IC50 at P2X7 receptor [1] is 94.9 nM; at P2X7 receptor [2], 143 nM; on P2X7 receptor [3], 200 to 1000 nM.

Turning to `O=c1onc(Cc2ccc(Cl)cc2Cl)n1CC1CCCCC1` [Example 118, 4-(cyclohexylmethyl)-3-[(2,4-dichlorophenyl)methyl]-4,5-dihydro-1,2,4-oxadiazol-5-one], the figures for the IC50 on P2X7 receptor [1], against P2X7 receptor [2] and on P2X7 receptor [3] were 1090 nM, 618 nM and 200 to 1000 nM, respectively.

Consider `O=c1onc(Cc2ccc(F)cc2F)n1CC1CCCCC1` [Example 119, 4-(cyclohexylmethyl)-3-[(2,4-difluorophenyl)methyl]-4,5-dihydro-1,2,4-oxadiazol-5-one], for which the half-inhibitory concentration (IC50) at P2X7 receptor [1] was 268 nM; at P2X7 receptor [2], 547 nM; on P2X7 receptor [3], 200 to 1000 nM.

Take `O=c1onc(Cc2ccccc2F)n1CC1CCCCC1` [Example 120, 4-(cyclohexylmethyl)-3-[(2-fluorophenyl)methyl]-4,5-dihydro-1,2,4-oxadiazol-5-one]: the IC50 at P2X7 receptor [1] is 162 nM; on P2X7 receptor [2], 590 nM; at P2X7 receptor [3], 200 to 1000 nM.
